Experimental data as given in patent US20250185948A1, “WEARABLE APTAMER MICRONEEDLE PATCH FOR CONTINUOUS MINIMALLY-INVASIVE BIOMONITORING” (THE REGENTS OF THE UNIVERSITY OF CALIFORNIA, priority 2022, published 2025).

What was measured:
[1] = AMPatch in-vivo tobramycin PK monitoring in a rat model (ISF sensor readout and blood LC-MS/MS); set-up: species or system Sprague-Dawley rats; details: intravenous tobramycin 20 mg/kg, different animals
From the text: More particularly, the developed AMPatch was applied to monitor the PK profile of tobramycin in dermal ISF using a rat model and investigate the drug's ISF-blood correlation. Accordingly, used were three healthy adult Sprague-Dawley rats and the animals were anesthetized during the test (FIG. 4A). An AMPatch was placed at the back of the animal to render continuous ISF monitoring upon intravenous tobramycin injection. […] To investigate the drug's ISF-blood correlation, blood samples were simultaneously collected before and at intermittent time points after drug injection, followed by standard lab analysis (liquid chromatography with tandem mass spectrometry, LC-MS/MS). The acquired PK readouts were interpreted using a two compartment-based pharmacokinetic model, which captures the drug's distribution (e.g., from blood to ISF) and elimination processes (FIG. 4B). The blood-ISF correlation was evaluated by comparing the drug's circulating AUC (AUC_blood) versus the AUC and the maximum concentrations of ISF drug, where the ISF concentrations can be equivalently presented by the measured sensor response (denoting AUC_ISF and R_max, respectively).
An AMPatch according to embodiments was first deployed in a manner to assess its capability of tracking the ISF PK profile in-vivo. […]

[2] = tobramycin treatments; cited from earlier work

For `NC[C@H]1O[C@H](O[C@H]2[C@H](O)[C@@H](O[C@H]3O[C@H](CO)[C@@H](O)[C@H](N)[C@H]3O)[C@H](N)C[C@@H]2N)[C@H](N)C[C@@H]1O` [tobramycin], the AUC ([1]; Sprague-Dawley, blood LC-MS/MS, read-out: AUC_blood) is listed as 176 µM·h, the AUC_ISF ([1]; dermal ISF, AMPatch sensor response) is listed as 7.7±5.2 %·h and the “rate of nephrotoxicity incidence” value [2] is listed as 12%.
